# From ChEMBL document CHEMBL1201862, “PubChem BioAssay data set” (2004)
#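 Cultured in 96-well plates, cells were exposed to test compound for 48 hours across five concentrations. Abbreviation: GI50, concentration required for 50% inhibition of growth.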 Activity calls are given as the source filed them. Cut-off read from the data, not from the text of the source: active = GI50 up to about 1.1 µM and inactive = higher.
# How the values were obtained:
# Assay in all cases: DTP human tumour cell line panel, 48 h
# [1] = tested on: A549
# [2] = tested on: BT-549
# [3] = tested on: EKVX
# [4] = tested on: HCC 2998
# [5] = tested on: HOP-62
# [6] = tested on: K562
# [7] = tested on: MDA-MB-435
# [8] = tested on: MDA-N
# [9] = tested on: MOLT-4
# [10] = tested on: NCI/ADR-RES
# [11] = tested on: OVCAR-5
# [12] = tested on: OVCAR-8
# [13] = tested on: PC-3
# [14] = tested on: RPMI-8226
# [15] = tested on: RXF 393
# [16] = tested on: SF-539
# [17] = tested on: SNB-75
# [18] = tested on: T47D
# [19] = tested on: U-251
# [20] = tested on: M19-MEL
Structure (SMILES),GI50 [1],GI50 [2],GI50 [3],GI50 [4],GI50 [5],GI50 [6],GI50 [7],GI50 [8],GI50 [9],GI50 [10],GI50 [11],GI50 [12],GI50 [13],GI50 [14],GI50 [15],GI50 [16],GI50 [17],GI50 [18],GI50 [19],GI50 [20]
COc1cc2nc(-c3ccccc3)cc(O)c2cc1OC,18.5 µM (inactive),> 100 µM (inactive),> 100 µM (inactive),16.5 µM (inactive),19 µM (inactive),4.76 µM (inactive),2.86 µM (inactive),2.18 µM (inactive),17.6 µM (inactive),54.8 µM (inactive),41.1 µM (inactive),35.1 µM (inactive),23 µM (inactive),27 µM (inactive),21.2 µM (inactive),14.3 µM (inactive),12.1 µM (inactive),> 100 µM (inactive),6.95 µM (inactive),
CO/N=C(\C)c1ccc(Nc2c3ccccc3nc3occc23)cc1,0.643 µM (active),0.845 µM (active),3.74 µM (inactive),0.322 µM (active),1.27 µM (inactive),0.195 µM (active),0.0451 µM (active),0.0855 µM (active),0.366 µM (active),0.181 µM (active),4.08 µM (inactive),0.841 µM (active),0.527 µM (active),0.429 µM (active),0.0813 µM (active),0.383 µM (active),0.41 µM (active),0.522 µM (active),0.522 µM (active),
CCCC[C@H]1C(=O)O[C@H](C)[C@H](NC(=O)c2cccc(NC=O)c2OC)C(=O)O[C@@H](C)[C@@H]1OC(=O)C(C)CC.CCCC[C@H]1C(=O)O[C@H](C)[C@H](NC(=O)c2cccc(NC=O)c2OC)C(=O)O[C@@H](C)[C@@H]1OC(=O)CC(C)C (stereo not given in full),10.3 µM (inactive),16.8 µM (inactive),11 µM (inactive),29 µM (inactive),17.8 µM (inactive),12.2 µM (inactive),10.3 µM (inactive),17.6 µM (inactive),11.2 µM (inactive),23 µM (inactive),22.2 µM (inactive),12.9 µM (inactive),9.42 µM (inactive),10.2 µM (inactive),14.1 µM (inactive),15.8 µM (inactive),8.02 µM (inactive),14 µM (inactive),9.46 µM (inactive),
O=c1c2c3c(sc2nc2n1N=C(c1ccc(Cl)cc1)CS2)CCCC3,> 100 µM (inactive),> 100 µM (inactive),> 100 µM (inactive),> 100 µM (inactive),> 100 µM (inactive),> 100 µM (inactive),> 100 µM (inactive),> 100 µM (inactive),> 100 µM (inactive),> 100 µM (inactive),> 100 µM (inactive),> 100 µM (inactive),> 100 µM (inactive),> 100 µM (inactive),> 100 µM (inactive),> 100 µM (inactive),> 100 µM (inactive),> 100 µM (inactive),> 100 µM (inactive),
Oc1ccccc1/C=N/Cc1ccco1,> 100 µM (inactive),,> 100 µM (inactive),,> 100 µM (inactive),> 100 µM (inactive),,,> 100 µM (inactive),,> 100 µM (inactive),> 100 µM (inactive),,> 100 µM (inactive),> 100 µM (inactive),> 100 µM (inactive),> 100 µM (inactive),,> 100 µM (inactive),> 100 µM (inactive)
Nc1ccc2ncc(Nc3ccc(F)cc3)nc2c1,> 100 µM (inactive),,> 100 µM (inactive),> 100 µM (inactive),> 100 µM (inactive),52.5 µM (inactive),,,27.7 µM (inactive),,84.5 µM (inactive),> 100 µM (inactive),,87.3 µM (inactive),,90.4 µM (inactive),> 100 µM (inactive),,> 100 µM (inactive),94.6 µM (inactive)
COc1cc(O)c2c(=O)c3c(C)cccc3n(C)c2c1,> 10 µM (inactive),> 10 µM (inactive),4.17 µM (inactive),> 10 µM (inactive),> 10 µM (inactive),> 10 µM (inactive),> 10 µM (inactive),> 10 µM (inactive),> 10 µM (inactive),> 10 µM (inactive),> 10 µM (inactive),> 10 µM (inactive),> 10 µM (inactive),> 10 µM (inactive),> 10 µM (inactive),> 10 µM (inactive),> 10 µM (inactive),> 10 µM (inactive),> 10 µM (inactive),
C/C=C(\C)C(=O)OC1C2C(C)C(=O)OC2C(O)C(C)C2C=CC(=O)C21C (stereo not given),17.8 µM (inactive),7.5 µM (inactive),11.7 µM (inactive),13.3 µM (inactive),18.2 µM (inactive),2.96 µM (inactive),12.9 µM (inactive),8.81 µM (inactive),8.47 µM (inactive),14.6 µM (inactive),19.5 µM (inactive),11.9 µM (inactive),16.8 µM (inactive),4.61 µM (inactive),8.73 µM (inactive),9.27 µM (inactive),15.8 µM (inactive),16.7 µM (inactive),11.5 µM (inactive),
CC#COS(=O)(=O)c1ccc(C)cc1,44.3 µM (inactive),,53.5 µM (inactive),> 100 µM (inactive),> 100 µM (inactive),36.8 µM (inactive),,,41.1 µM (inactive),,> 100 µM (inactive),> 100 µM (inactive),,23.1 µM (inactive),,> 100 µM (inactive),,,> 100 µM (inactive),70.1 µM (inactive)
COc1cc2ccc(/C(C)=N/OC(C)=O)cc2cc1OC,> 100 µM (inactive),,3.58 µM (inactive),,,94 µM (inactive),,,39.7 µM (inactive),,63.4 µM (inactive),> 100 µM (inactive),,84.7 µM (inactive),25.4 µM (inactive),77.1 µM (inactive),5.81 µM (inactive),,86.9 µM (inactive),> 100 µM (inactive)
O=C1C2=C(c3ccccc31)C(c1ccccc1Cl)N1C(=O)CSC1=N2 (stereo not given),> 100 µM (inactive),,> 100 µM (inactive),> 100 µM (inactive),> 100 µM (inactive),50.4 µM (inactive),,,33.9 µM (inactive),,> 100 µM (inactive),> 100 µM (inactive),,39.8 µM (inactive),,> 100 µM (inactive),39.4 µM (inactive),,> 100 µM (inactive),> 100 µM (inactive)
CC(=O)Oc1c(-c2ccccc2)[nH]c2cc([N+](=O)[O-])c(/C(Cl)=C/c3ccccc3)cc12,6.15 µM (inactive),,8.53 µM (inactive),4.6 µM (inactive),25.9 µM (inactive),3.82 µM (inactive),,,2.84 µM (inactive),,4.22 µM (inactive),4.3 µM (inactive),,3.08 µM (inactive),,,15.6 µM (inactive),,4.52 µM (inactive),3.31 µM (inactive)
Nc1nc(N)c(CCCCc2ccccc2)c(/C=C/c2ccc([N+](=O)[O-])cc2)n1,0.388 µM (active),,4.44 µM (inactive),2.65 µM (inactive),2.77 µM (inactive),0.348 µM (active),,,1.14 µM (inactive),,3.87 µM (inactive),2.59 µM (inactive),,3.31 µM (inactive),,2.16 µM (inactive),2.47 µM (inactive),,2.13 µM (inactive),3.36 µM (inactive)
CC(=O)NC1C(O)C(O)C(CO)OC1n1nc(SCc2ccccc2)c(=O)[nH]c1=O (stereo not given),> 100 µM (inactive),> 100 µM (inactive),> 100 µM (inactive),> 100 µM (inactive),> 100 µM (inactive),> 100 µM (inactive),> 100 µM (inactive),> 100 µM (inactive),> 100 µM (inactive),> 100 µM (inactive),> 100 µM (inactive),> 100 µM (inactive),> 100 µM (inactive),> 100 µM (inactive),> 100 µM (inactive),> 100 µM (inactive),> 65 µM (inactive),> 100 µM (inactive),> 100 µM (inactive),
O=C(O)CCN(CCCCN(CCC(=O)O)CCC(=O)O)CCC(=O)O,> 100 µM (inactive),,> 100 µM (inactive),> 100 µM (inactive),> 100 µM (inactive),> 100 µM (inactive),,,> 100 µM (inactive),,> 100 µM (inactive),> 100 µM (inactive),,> 100 µM (inactive),,> 100 µM (inactive),> 100 µM (inactive),,> 100 µM (inactive),> 100 µM (inactive)
O=C1OC(c2ccccc2)(c2ccccc2)CC1CN1CCOCC1 (stereo not given),10.7 µM (inactive),,33.7 µM (inactive),16.5 µM (inactive),> 100 µM (inactive),24.2 µM (inactive),,,24.5 µM (inactive),,29.2 µM (inactive),57.8 µM (inactive),,,,17.5 µM (inactive),13.9 µM (inactive),,25.4 µM (inactive),15.9 µM (inactive)
O=C(/C=C/c1ccccc1Br)c1ccccc1,12 µM (inactive),13.6 µM (inactive),13 µM (inactive),2.89 µM (inactive),13.4 µM (inactive),1.94 µM (inactive),2.46 µM (inactive),6.71 µM (inactive),2.84 µM (inactive),6.08 µM (inactive),16.1 µM (inactive),2.63 µM (inactive),11.4 µM (inactive),3.01 µM (inactive),7.82 µM (inactive),4.1 µM (inactive),12 µM (inactive),4.52 µM (inactive),1.56 µM (inactive),
